In ChEMBL document CHEMBL1148505, “Inhibition of Plasmodium falciparum fatty acid biosynthesis: evaluation of FabG, FabZ, and FabI as drug targets for flavonoids” (J Med Chem, 2006):
Calls of active or inactive are those of the source. The rule behind the calls is not given here.

Each compound was assayed against T1, 3-oxoacyl-acyl-carrier protein reductase (Plasmodium falciparum, UniProt Q965D6) (assay: Inhibition of FabG).
T1 sequence (Q965D6 whole entry): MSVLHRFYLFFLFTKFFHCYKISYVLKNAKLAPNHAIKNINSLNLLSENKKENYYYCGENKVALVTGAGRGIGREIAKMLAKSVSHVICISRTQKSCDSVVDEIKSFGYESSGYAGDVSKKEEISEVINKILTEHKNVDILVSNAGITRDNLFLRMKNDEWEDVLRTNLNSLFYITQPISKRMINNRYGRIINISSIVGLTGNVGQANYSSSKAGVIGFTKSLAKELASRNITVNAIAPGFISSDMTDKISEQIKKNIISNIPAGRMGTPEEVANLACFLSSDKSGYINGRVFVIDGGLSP
Work on `O=c1cc(-c2ccccc2)oc2cc(O)cc(O)c12` [CHRYSIN] yielded an IC50 of 10 µM.
`O=c1c(O)c(-c2ccccc2)oc2cc(O)cc(O)c12` [GALANGIN] was tested, and the IC50 was 100 µM.
`COc1cc2oc(-c3ccc(O)cc3)cc(=O)c2c(O)c1OC` [CIRSIMARITIN] showed an IC50 of 70 µM.

The compounds below were run on Plasmodium falciparum (assay: Antiplasmodial activity against chloroquine-sensitive Plasmodium falciparum NF54).
Assay type: functional, organism-based
Work on `O=C1C[C@@H](c2ccc(O)cc2)Oc2cc(O)cc(O)c21` [NARINGENIN] yielded an IC50 of 141 µM.
With `COc1ccc(-c2cc(=O)c3c(O)c(O)c(OC)cc3o2)cc1` [LADANEIN] the IC50 was 9 µM.
Compound `COc1cc2c(c(O)c1OC)C(=O)C[C@@H](c1ccc(O)cc1)O2` has an IC50 of 8.8 µM.
For `Oc1cc(O)c2c(c1)O[C@@H](c1ccc(O)c(O)c1)[C@@H](O)C2` [(+)-EPICATECHIN], the IC50 was > 150 µM.
Work on `O=c1cc(-c2ccccc2)oc2cc(O)cc(O)c12` [CHRYSIN] yielded an IC50 of 29.8 µM.
Work on `O=c1c(O)c(-c2ccccc2)oc2cc(O)cc(O)c12` [GALANGIN] yielded an IC50 of 39.4 µM.
`Oc1cc(O)c2c(c1)O[C@@H](c1ccc(O)c(O)c1)[C@H](O)C2` [(-)-CATECHIN] was tested, and the IC50 was > 150 µM.
Compound `O=c1c(O)c(-c2ccccc2)oc2ccccc12` [FLAVONOL] has an IC50 of 24 µM.
`O=c1cc(-c2ccccc2)oc2cccc(O)c12` [5-HYDROXYFLAVONE] was tested, and the IC50 was 65.9 µM.
For `COc1ccc2c(=O)cc(-c3ccccc3)oc2c1OC`, the IC50 was 40.9 µM.
In the case of `Oc1cc(O)c2c(c1)O[C@H](c1cc(O)c(O)c(O)c1)[C@H](O)C2` [EPIGALLOCATECHIN], the IC50 is reported as > 150 µM.
With `O=c1cc(-c2ccccc2)oc2ccccc12` [FLAVONE] the IC50 was 60.8 µM.
For `COc1cc2oc(-c3ccc(O)cc3)cc(=O)c2c(O)c1OC` [CIRSIMARITIN], the IC50 was 16.9 µM.
Work on `Oc1cc(O)c2c(c1)O[C@H](c1ccc(O)c(O)c1)[C@@H](O)C2` [CIANIDANOL] yielded an IC50 of 144 µM.
With `O=c1c(O)c(-c2ccccc2)oc2ccc(O)cc12` the IC50 was 36.4 µM.
With `Oc1cc(O)c2c(c1)O[C@H](c1ccc(O)c(O)c1)[C@H](O)C2` [(-)-EPICATECHIN] the IC50 was > 150 µM.
With `Oc1cc(O)c2c(c1)O[C@@H](c1cc(O)c(O)c(O)c1)[C@H](O)C2` [(-)-GALLOCATECHIN] the IC50 was > 150 µM.
Compound `COc1cc(O)c2c(=O)c(OC)c(-c3ccc(OC)c(OC)c3)oc2c1` [RETUSIN] has an IC50 of 73.3 µM.
Work on `COc1cc(O)c2c(=O)cc(-c3ccc(O)cc3)oc2c1` [GENKWANIN] yielded an IC50 of 111 µM.

What follows are compounds tested against T2, Fatty acid synthase (Plasmodium falciparum) (UniProt Q965D7) (assay: Inhibition of FabZ at 100 uM).
T2 sequence (whole entry): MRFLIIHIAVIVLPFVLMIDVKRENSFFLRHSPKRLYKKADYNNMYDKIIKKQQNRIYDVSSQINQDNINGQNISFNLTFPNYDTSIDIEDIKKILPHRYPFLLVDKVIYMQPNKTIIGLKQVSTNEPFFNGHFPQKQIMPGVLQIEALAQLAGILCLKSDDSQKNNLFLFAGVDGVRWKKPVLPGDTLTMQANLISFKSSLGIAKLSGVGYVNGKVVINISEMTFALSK
`O=C1C[C@@H](c2ccc(O)cc2)Oc2cc(O)cc(O)c21` [NARINGENIN] was tested, and the Activity was “inactive”.
`COc1ccc(-c2cc(=O)c3c(O)c(O)c(OC)cc3o2)cc1` [LADANEIN] was tested, and the Activity was “inactive”.
For `COc1cc2c(c(O)c1OC)C(=O)C[C@@H](c1ccc(O)cc1)O2`, the Activity was “inactive”.
For `Oc1cc(O)c2c(c1)O[C@@H](c1ccc(O)c(O)c1)[C@@H](O)C2` [(+)-EPICATECHIN], the Activity was “inactive”.
For `O=c1cc(-c2ccccc2)oc2cc(O)cc(O)c12` [CHRYSIN], the Activity was “inactive”.
`O=c1c(O)c(-c2ccccc2)oc2cc(O)cc(O)c12` [GALANGIN] was tested, and the Activity was “inactive”.
In the case of `Oc1cc(O)c2c(c1)O[C@@H](c1ccc(O)c(O)c1)[C@H](O)C2` [(-)-CATECHIN], the Activity is reported as “inactive”.
In the case of `O=c1c(O)c(-c2ccccc2)oc2ccccc12` [FLAVONOL], the Activity is reported as “inactive”.
For `O=c1cc(-c2ccccc2)oc2cccc(O)c12` [5-HYDROXYFLAVONE], the Activity was “inactive”.
In the case of `COc1ccc2c(=O)cc(-c3ccccc3)oc2c1OC`, the Activity is reported as “inactive”.
With `Oc1cc(O)c2c(c1)O[C@H](c1cc(O)c(O)c(O)c1)[C@H](O)C2` [EPIGALLOCATECHIN] the Activity was “inactive”.
`O=c1cc(-c2ccccc2)oc2ccccc12` [FLAVONE] was tested, and the Activity was “inactive”.
In the case of `COc1cc2oc(-c3ccc(O)cc3)cc(=O)c2c(O)c1OC` [CIRSIMARITIN], the Activity is reported as “inactive”.
For `Oc1cc(O)c2c(c1)O[C@H](c1ccc(O)c(O)c1)[C@@H](O)C2` [CIANIDANOL], the Activity was “inactive”.
For `O=c1c(O)c(-c2ccccc2)oc2ccc(O)cc12`, the Activity was “inactive”.
In the case of `Oc1cc(O)c2c(c1)O[C@H](c1ccc(O)c(O)c1)[C@H](O)C2` [(-)-EPICATECHIN], the Activity is reported as “inactive”.
In the case of `Oc1cc(O)c2c(c1)O[C@@H](c1cc(O)c(O)c(O)c1)[C@H](O)C2` [(-)-GALLOCATECHIN], the Activity is reported as “inactive”.
For `COc1cc(O)c2c(=O)c(OC)c(-c3ccc(OC)c(OC)c3)oc2c1` [RETUSIN], the Activity was “inactive”.
For `COc1cc(O)c2c(=O)cc(-c3ccc(O)cc3)oc2c1` [GENKWANIN], the Activity was “inactive”.

Each compound was assayed against T3, Enoyl-acyl-carrier protein reductase (Plasmodium falciparum) (UniProt Q965D5) (assay: Inhibition of FabI at 100 uM).
T3 sequence (whole entry): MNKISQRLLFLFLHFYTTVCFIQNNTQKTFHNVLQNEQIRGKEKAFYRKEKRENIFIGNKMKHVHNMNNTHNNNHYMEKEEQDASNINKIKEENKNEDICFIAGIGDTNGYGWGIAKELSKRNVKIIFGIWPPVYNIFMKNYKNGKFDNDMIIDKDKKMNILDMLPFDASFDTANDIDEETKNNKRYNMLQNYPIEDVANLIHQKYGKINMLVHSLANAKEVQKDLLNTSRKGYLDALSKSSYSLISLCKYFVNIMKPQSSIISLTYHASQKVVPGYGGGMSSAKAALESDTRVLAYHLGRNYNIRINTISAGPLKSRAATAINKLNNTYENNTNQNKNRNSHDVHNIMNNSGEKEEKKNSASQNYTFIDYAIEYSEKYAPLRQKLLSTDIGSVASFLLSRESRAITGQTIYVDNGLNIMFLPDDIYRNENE
For `O=C1C[C@@H](c2ccc(O)cc2)Oc2cc(O)cc(O)c21` [NARINGENIN], the Activity was “inactive”.
`COc1ccc(-c2cc(=O)c3c(O)c(O)c(OC)cc3o2)cc1` [LADANEIN] was tested, and the Activity was “inactive”.
With `COc1cc2c(c(O)c1OC)C(=O)C[C@@H](c1ccc(O)cc1)O2` the Activity was “inactive”.
For `Oc1cc(O)c2c(c1)O[C@@H](c1ccc(O)c(O)c1)[C@@H](O)C2` [(+)-EPICATECHIN], the Activity was “inactive”.
With `O=c1cc(-c2ccccc2)oc2cc(O)cc(O)c12` [CHRYSIN] the Activity was “inactive”.
With `O=c1c(O)c(-c2ccccc2)oc2cc(O)cc(O)c12` [GALANGIN] the Activity was “inactive”.
With `Oc1cc(O)c2c(c1)O[C@@H](c1ccc(O)c(O)c1)[C@H](O)C2` [(-)-CATECHIN] the Activity was “inactive”.
For `O=c1c(O)c(-c2ccccc2)oc2ccccc12` [FLAVONOL], the Activity was “inactive”.
With `O=c1cc(-c2ccccc2)oc2cccc(O)c12` [5-HYDROXYFLAVONE] the Activity was “inactive”.
In the case of `COc1ccc2c(=O)cc(-c3ccccc3)oc2c1OC`, the Activity is reported as “inactive”.
In the case of `Oc1cc(O)c2c(c1)O[C@H](c1cc(O)c(O)c(O)c1)[C@H](O)C2` [EPIGALLOCATECHIN], the Activity is reported as “inactive”.
In the case of `O=c1cc(-c2ccccc2)oc2ccccc12` [FLAVONE], the Activity is reported as “inactive”.
With `COc1cc2oc(-c3ccc(O)cc3)cc(=O)c2c(O)c1OC` [CIRSIMARITIN] the Activity was “inactive”.
For `Oc1cc(O)c2c(c1)O[C@H](c1ccc(O)c(O)c1)[C@@H](O)C2` [CIANIDANOL], the Activity was “inactive”.
In the case of `O=c1c(O)c(-c2ccccc2)oc2ccc(O)cc12`, the Activity is reported as “inactive”.
`Oc1cc(O)c2c(c1)O[C@H](c1ccc(O)c(O)c1)[C@H](O)C2` [(-)-EPICATECHIN] was tested, and the Activity was “inactive”.
With `Oc1cc(O)c2c(c1)O[C@@H](c1cc(O)c(O)c(O)c1)[C@H](O)C2` [(-)-GALLOCATECHIN] the Activity was “inactive”.
`COc1cc(O)c2c(=O)c(OC)c(-c3ccc(OC)c(OC)c3)oc2c1` [RETUSIN] was tested, and the Activity was “inactive”.
`COc1cc(O)c2c(=O)cc(-c3ccc(O)cc3)oc2c1` [GENKWANIN] was tested, and the Activity was “inactive”.

The compounds below were run against T4, 3-oxoacyl-acyl-carrier protein reductase (Plasmodium falciparum) (UniProt Q965D6) (assay: Inhibition of FabG at 100 uM).
T4 sequence (whole entry): T1 sequence (Q965D6 whole entry)
In the case of `O=C1C[C@@H](c2ccc(O)cc2)Oc2cc(O)cc(O)c21` [NARINGENIN], the Activity is reported as “Active”.
For `COc1ccc(-c2cc(=O)c3c(O)c(O)c(OC)cc3o2)cc1` [LADANEIN], the Activity was “inactive”.
`COc1cc2c(c(O)c1OC)C(=O)C[C@@H](c1ccc(O)cc1)O2` was tested, and the Activity was “inactive”.
`Oc1cc(O)c2c(c1)O[C@@H](c1ccc(O)c(O)c1)[C@@H](O)C2` [(+)-EPICATECHIN] was tested, and the Activity was “inactive”.
With `Oc1cc(O)c2c(c1)O[C@@H](c1ccc(O)c(O)c1)[C@H](O)C2` [(-)-CATECHIN] the Activity was “inactive”.
In the case of `O=c1c(O)c(-c2ccccc2)oc2ccccc12` [FLAVONOL], the Activity is reported as “inactive”.
`O=c1cc(-c2ccccc2)oc2cccc(O)c12` [5-HYDROXYFLAVONE] was tested, and the Activity was “inactive”.
In the case of `COc1ccc2c(=O)cc(-c3ccccc3)oc2c1OC`, the Activity is reported as “inactive”.
`Oc1cc(O)c2c(c1)O[C@H](c1cc(O)c(O)c(O)c1)[C@H](O)C2` [EPIGALLOCATECHIN] was tested, and the Activity was “inactive”.
With `O=c1cc(-c2ccccc2)oc2ccccc12` [FLAVONE] the Activity was “inactive”.
`Oc1cc(O)c2c(c1)O[C@H](c1ccc(O)c(O)c1)[C@@H](O)C2` [CIANIDANOL] was tested, and the Activity was “inactive”.
For `O=c1c(O)c(-c2ccccc2)oc2ccc(O)cc12`, the Activity was “inactive”.
For `Oc1cc(O)c2c(c1)O[C@H](c1ccc(O)c(O)c1)[C@H](O)C2` [(-)-EPICATECHIN], the Activity was “inactive”.
`Oc1cc(O)c2c(c1)O[C@@H](c1cc(O)c(O)c(O)c1)[C@H](O)C2` [(-)-GALLOCATECHIN] was tested, and the Activity was “inactive”.
For `COc1cc(O)c2c(=O)c(OC)c(-c3ccc(OC)c(OC)c3)oc2c1` [RETUSIN], the Activity was “inactive”.
With `COc1cc(O)c2c(=O)cc(-c3ccc(O)cc3)oc2c1` [GENKWANIN] the Activity was “inactive”.
